Reference: patent US11559575B2, “Multi-epitopic peptide compounds and vaccines against leishmaniasis” (INSTITUT DE RECHERCHE POUR LE DEVELOPPEMENT, priority 2018, dated 2023)
“Also recorded” adds a separate entry of the source.

System: HLA alleles of class II
Experiment: Affinity of epitopes for HLA alleles of class II
Type: binding, human
Conditions: H2B-II core epitopes, Table 1
Excerpt: The multiepitopic peptide compounds (24 to 40-mer), having a high affinity with a maximized number of HLA molecules of class I and of class II, such as the affinities for the alleles HLA of class I and HLA of class II of the epitopes in the peptides of the sequences SEQ ID NO: 22, 23, 65, 66, 69, 73, 77, 96, 97, 137, 138, and 157, 185, have a high immunoprevalent potential corresponding to an optimal vaccine coverage, in particular for the populations concerned. The degree of coverage of the peptide compounds of the invention show a very high added value compared with the peptides of the prior art.

| Sequence | Affinity HLA alleles of class II |
| --- | --- |
| PKRSWNVYV (Leishmania major) [SEQ ID NO: 48] | HLA-DRB1*13:02,; also recorded: HLA-DRB1*15:01 |
| AQMSMSHRT (Leishmania major) [SEQ ID NO: 42] | HLA-DRB1*07:01 |
| INAQMSMSH (Leishmania major) [SEQ ID NO: 44] | HLA-DRB1*04:01,; also recorded: HLA-DRB1*04:05,; also recorded: HLA-DRB1*09:01,; also recorded: HLA-DRB1*11:01,; also recorded: HLA-DRB1*15:01,; also recorded: HLA-DRB4*01:01,; also recorded: HLA-DRB5*01:01 |
| GRSLKAINA (Leishmania major) [SEQ ID NO: 43] | HLA-DRB1*01:01 |
| YVGRSLKAI (Leishmania major) [SEQ ID NO: 54] | HLA-DRB1*08:02,; also recorded: HLA-DPA1*02:01/; also recorded: DPB1*01:01 |
| LKAINAQMS (Leishmania major) [SEQ ID NO: 45] | HLA-DRB1*04:05,; also recorded: HLA-DRB1*07:01,; also recorded: HLA-DRB1*08:02,; also recorded: HLA-DRB1*09:01,; also recorded: HLA-DRB1*11:01,; also recorded: HLA-DRB4*01:01,; also recorded: HLA-DRB5*01:01 |

Same assay, conditions: H2B-II peptides, Table 1

| Sequence | Concatenation affinity for the HLA alleles of class II |
| --- | --- |
| VGRSLKAINAWMSMS (VGRSLKAINAQMSMS; Leishmania major) [SEQ ID NO: 34] | HLA-DRB1*01:01, HLA-DRB1*04:05, HLA-DRB1*07:01,; also recorded: HLA-DRB1*09:01, HLA-DRB4*01:01, HLA-DRB5*01:01,; also recorded: HLA-DRB1*04:01, HLA-DRB1*08:02, HLA-DRB1*11:01,; also recorded: HLA-DRB1*13:02 |
| SLKAINAQMSMSHRT (Leishmania major) [SEQ ID NO: 37] | HLA-DRB1*07:01, HLA-DRB1*04:01, HLA-DRB1*04:05,; also recorded: HLA-DRB1*09:01, HLA-DRB1*11:01, HLA-DRB1*15:01,; also recorded: HLA-DRB5*01:01, HLA-DRB1*01:01, HLA-DRB1*08:02,; also recorded: HLA-DRB4*01:01, |
| KPKRSWNVYVGRSLK (Leishmania major) [SEQ ID NO: 25] | HLA-DRB5*01:01, HLA-DRB1*01:01, HLA-DRB1*07:01,; also recorded: HLA-DRB1*09:01, HLA-DRB1*15:01 |
| PKRSWNVYVGRSLKA (Leishmania major) [SEQ ID NO: 26] | HLA-DRB5*01:01, HLA-DRB1*01:01, HLA-DRB1*11:01,; also recorded: HLA-DRB5*13:02, HLA-DRB5*07:01, HLA-DRB5*09:01,; also recorded: HLA-DRB5*15:01 |
| RSLKAINAWMSMSHR (RSLKAINAQMSMSHR; Leishmania major) [SEQ ID NO: 36] | HLA-DRB1*04:01, HLA-DRB1*15:01, HLA-DRB1*05:01,; also recorded: HLA-DRB1*01:01, HLA-DRB1*04:05, HLA-DRB1*07:01,; also recorded: HLA-DRB1*08:02, HLA-DRB1*09:01, HLA-DRB1*11:01,; also recorded: HLA-DRB4*01:01, |
| KAINAQMSMSHRTMK (Leishmania major) [SEQ ID NO: 39] | HLA-DRB1*07:01, HLA-DRB1*04:01, HLA-DRB1*04:05,; also recorded: HLA-DRB1*09:01, HLA-DRB1*11:01, HLA-DRB1*15:01,; also recorded: HLA-DRB5*01:01, HLA-DRB4*01:01, HLA-DRB1*03:01, |

Same assay, conditions: LmLRAB-IIA core, Table 2

| Sequence | Concatenation affinity for HLA alleles of class II |
| --- | --- |
| LHSVVGRHL (Leishmania major) [SEQ ID NO: 90] | HLA-DRB1*11:01; also recorded: HLA-DRB1*15:01; also recorded: HLA-DRB4*01:01; also recorded: HLA-DRB5*01:01; also recorded: HLA-DRB1*07:01; also recorded: HLA-DRB1*09:01 |
| VGRHLSIVA (Leishmania major) [SEQ ID NO: 91] | HLA-DRB1*15:01 |
| HLSIVADHM (Leishmania major) [SEQ ID NO: 88] | HLA-DRB1*01:01 |

Same assay, conditions: LmLRAB-IIA peptides, Table 2

| Sequence | Concatenation affinity for HLA alleles of class II |
| --- | --- |
| VVGRHLSIVADHMPH (Leishmania major) [SEQ ID NO: 84] | HLA-DRB1*01:01 |
| GRLHSVVGRHLSIVA (Leishmania major) [SEQ ID NO: 79] | HLA-DRB1*07:01,; also recorded: HLA-DRB5*01:01,; also recorded: HLA-DRB1*15:01,; also recorded: HLA-DRB1*11:01,; also recorded: HLA-DRB1*09:01,; also recorded: HLA-DRB4*01:01 |
| KGRLHSVVGRHLSIV (Leishmania major) [SEQ ID NO: 78] | HLA-DRB1*07:01,; also recorded: HLA-DRB5*01:01,; also recorded: HLA-DRB1*11:01,; also recorded: HLA-DRB1*15:01,; also recorded: HLA-DRB1*09:01,; also recorded: HLA-DRB4*01:01 |
| VGRHLSIVADHMPHL (Leishmania major) [SEQ ID NO: 85] | HLA-DRB1*03:01,; also recorded: HLA-DRB3*01:01,; also recorded: HLA-DRB1*13:02,; also recorded: HLA-DRB1*15:01, |
| GRHLSIVADHMPHLD (Leishmania major) [SEQ ID NO: 86] | HLA-DRB3*01:01,; also recorded: HLA-DRB1*03:01,; also recorded: HLA-DRB1*13:02, |
| LHSVVGRHLSIVADH (Leishmania major) [SEQ ID NO: 81] | HLA-DRB1*07:01,; also recorded: HLA-DRB1*15:01,; also recorded: HLA-DRB5*01:01,; also recorded: HLA-DRB1*11:01,; also recorded: HLA-DRB1*09:01, |
| HSVVGRHLSIVADHM (Leishmania major) [SEQ ID NO: 82] | HLA-DRB1*15:01 |
| RLHSVVGRHLSIVAD (Leishmania major) [SEQ ID NO: 80] | HLA-DRB1*07:01,; also recorded: HLA-DRB1*15:01,; also recorded: HLA-DRB5*01:01,; also recorded: HLA-DRB1*11:01,; also recorded: HLA-DRB1*09:01, |
| RHLSIVADHMPLHDQ (RHLSIVADHMPHLDQ; Leishmania major) [SEQ ID NO: 87] | HLA-DRB3*01:01,; also recorded: HLA-DRB1*03:01,; also recorded: HLA-DRB1*13:02 |

Same assay, conditions: LmlRAB-IIB core, Table 2

| Sequence | Concatenation affinity for HLA alleles of class II |
| --- | --- |
| AIVTSRKVQ (Leishmania major) [SEQ ID NO: 119] | HLA-DRB1*11:01 |
| LFTDVHYSE (Leishmania major) [SEQ ID NO: 124] | HLA-DRB1*03:01,; also recorded: HLA-DRB3*01:01,; also recorded: DPB1*04:01,; also recorded: HLA-DPA1*02:01/; also recorded: HLA-DPA1*03:01/; also recorded: DPB1*04:02 |

Same assay, conditions: LmlRAB-IIB peptides, Table 2

| Sequence | Concatenation affinity for HLA alleles of class II |
| --- | --- |
| ENAIVTSRKVQEEVF (Leishmania major) [SEQ ID NO: 101] | HLA-DRB1*03:01, HLA-DRB1*07:01,; also recorded: HLA-DRB1*08:02, HLA-DRB1*11:01,; also recorded: HLA-DRB1*12:01 |
| RSENAIVTSRKVQEE (Leishmania major) [SEQ ID NO: 112] | HLA-DRB1*01:01, HLA-DRB1*03:01,; also recorded: HLA-DRB1*07:01, HLA-DRB1*11:01,; also recorded: HLA-DRB5*01:01 |
| AIVTSRKVQEEVFDL (Leishmania major) [SEQ ID NO: 98] | HLA-DRB1*03:01, HLA-DRB1*11:01,; also recorded: HLA-DRB1*12:01 |
| GRSENAIVTSRKVQE (Leishmania major) [SEQ ID NO: 104] | HLA-DRB1*01:01, HLA-DRB1*03:01,; also recorded: HLA-DRB1*07:01, HLA-DRB1*11:01,; also recorded: HLA-DRB1*12:01, HLA-DRB5*01:01 |
| IVTSRKVQEEVFDLF (Leishmania major) [SEQ ID NO: 105] | HLA-DRB1*03:01, HLA-DRB1*11:01,; also recorded: HLA-DPA1*01:03/DPB1*02:01,; also recorded: HLA-DPA1*01/DPB1*04:01,; also recorded: HLA-DPA1*02:01/DPB1*05:01,; also recorded: HLA-DPA1*02:01/HLA-DPB1*14:01 |
| DLFTDVHYSEVSAKT (Leishmania major) [SEQ ID NO: 99] | HLA-DRB1*04:01, HLA-DRB7*01:01,; also recorded: HLA-DPA1*01:03/DPB1*02:01,; also recorded: HLA-DPA1*01/DPB1*04:01, HLA-DPA1*02:01/; also recorded: HLA-DPB1*14:01 |
| SRKVQEEVFDLFTDV (Leishmania major) [SEQ ID NO: 114] | HLA-DRB1*03:01, HLA-DPA1*01:03/DPB1*02:01,; also recorded: HLA-DPA1*02:01/DPB1*05:01,; also recorded: HLA-DPA1*03:01/DPB1*04:02 |
| VTSRKQEEVFDLFT (Leishmania major) [SEQ ID NO: 118] | HLA-DRB1*03:01, HLA-DPA1*01:03/DPB1*02:01,; also recorded: HLA-DPA1*02:01/DPB1*05:01,; also recorded: HLA-DPA1*03:01/HLA-DPB1*04:02,; also recorded: HLA-DPA1*02:01/HLA-DPB1*14:01 |

Same assay, conditions: PSA KC-2.6 core, Table 3

| Sequence | Concatenation affinity for HLA alleles of class II |
| --- | --- |
| RSGEGYFLT (listed as Leishmania infantum) [SEQ ID NO: 149] | HLA-DRB1*03:01,; also recorded: HLA-DRB3*01:01 |

Same assay, conditions: PSA KC-2.6 peptides, Table 3

| Sequence | Concatenation affinity for HLA alleles of class II |
| --- | --- |
| RSGEGYFLTDEKTSL (listed as Leishmania infantum) [SEQ ID NO: 143] | HLA-DRB1*01:01, HLA-DRB1*03:01,; also recorded: HLA-DRB1*04:01, HLA-DRB3*01:01,; also recorded: HLA-DPA1*03:01/DPB1*14:01 |
| SGEGYFLTDEKTSLV (listed as Leishmania infantum) [SEQ ID NO: 144] | HLA-DRB1*01:01, HLA-DRB1*03:01,; also recorded: HLA-DRB1*04:01, HLA-DRB1*04:05,; also recorded: HLA-DRB1*07:01, HLA-DRB1*11:01,; also recorded: HLA-DRB3*01:01, HLA-DRB3*02:02,; also recorded: HLA-DPA1*02:01/DPB1*01:01 |
| FLTDEKTSLVYGDGG (listed as Leishmania infantum) [SEQ ID NO: 140] | HLA-DRB1*03:01, HLA-DRB3*01:01 |

Same assay, conditions: PSA KC-2.7 core, Table 3

| Sequence | Concatenation affinity for HLA alleles of class II |
| --- | --- |
| DFSNMGLLL (listed as Leishmania infantum) [SEQ ID NO: 171] | HLA-DPA1*01:03/; also recorded: DPB1*04:01,; also recorded: HLA-DPA1*03:01/; also recorded: DPB1*04:02 |
| YSHSMIRDL (listed as Leishmania infantum) [SEQ ID NO: 178] | HLA-DRB1*04:05,; also recorded: HLA-DRB1*07:01,; also recorded: HLA-DRB1*09:01,; also recorded: HLA-DPA1*02:01/; also recorded: DPB1*01:01 |
| IRDLDFSNM (listed as Leishmania infantum) [SEQ ID NO: 174] | HLA-DRB1*01:01,; also recorded: HLA-DRB4*01:01 |

Same assay, conditions: PSA KC-2.7 peptides, Table 3

| Sequence | Concatenation affinity for HLA alleles of class II |
| --- | --- |
| SHSMIRDLDGSNMGL (SHSMIRDLDFSNMGL; listed as Leishmania infantum) [SEQ ID NO: 168] | HLA-DRB1*03:01, HLA-DRB1*04:01,; also recorded: HLA-DRB1*04:05, HLA-DRB1*08:02,; also recorded: HLA-DRB1*12:01, HLA-DRB4*01:01 |
| SDYSHSMIRDLDFSN (listed as Leishmania infantum) [SEQ ID NO: 166] | HLA-DRB1*04:05, HLA-DRB1*07:01,; also recorded: HLA-DRB1*12:01, HLA-DRB1*09:01,; also recorded: HLA-DRB4*01:01,; also recorded: HLA-DPA1*02:01/DPB1*14:01 |
| MPSGSDYSHSMIRDL (listed as Leishmania infantum) [SEQ ID NO: 163] | HLA-DRB1*04:05, HLA-DRB1*07:01,; also recorded: HLA-DRB1*09:01, HLA-DRB5*01:01 |
